A short description of series [1]: Cytotoxicity for Vero cells. The class given is cell-based. Conditions: African green monkey.
The subject of series [2] is T. cruzi (amastigotes). The experiment in a line: T. cruzi amastigote growth assay. The class given is cell-based, Trypanosoma cruzi. Conditions: for EC50: read-out: T. cruzi growth EC50, intracellular amastigotes, means ± SD, n = 3; for antiparasitic activity against T. cruzi (in words): amastigotes.
Series [3] relates to T. gondii (tachyzoites). The experiment in a line: T. gondii tachyzoites growth assay. The class given is cell-based, Toxoplasma gondii. Conditions: means ± SD, n = 3.
A further series deals with Vero cells. The experiment in a line: Cytotoxicity for Vero cells. The class given is cell-based. As to conditions: read-out: Cytotoxicity EC50.
The next series addresses TgFPPS. The experiment in a line: TgFPPS enzyme inhibition. The class given is biochemical, Toxoplasma gondii. As to conditions: read-out: TgFPPS IC50; means ± SD, n = 3.
For the next series, the target named is T1, HhFPPS (Homo sapiens, UniProt P14324).
T1 sequence (P14324 67-419 limits assumed): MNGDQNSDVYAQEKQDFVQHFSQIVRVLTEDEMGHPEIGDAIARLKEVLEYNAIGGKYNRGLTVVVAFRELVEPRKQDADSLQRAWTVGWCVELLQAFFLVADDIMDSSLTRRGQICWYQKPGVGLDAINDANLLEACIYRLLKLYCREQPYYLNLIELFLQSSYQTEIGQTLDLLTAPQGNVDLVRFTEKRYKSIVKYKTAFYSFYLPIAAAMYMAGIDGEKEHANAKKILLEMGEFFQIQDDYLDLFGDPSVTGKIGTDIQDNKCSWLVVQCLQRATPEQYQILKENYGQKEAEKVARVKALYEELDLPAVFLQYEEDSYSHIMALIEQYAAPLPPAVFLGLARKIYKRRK
Briefly: HhFPPS enzyme inhibition. The class given is biochemical. As to conditions: read-out: HhFPPS IC50; means ± SD, n = 3.

A further series addresses T2, TcFPPS (Trypanosoma cruzi, UniProt Q8WS26).
T2 sequence (Q8WS26 1-425): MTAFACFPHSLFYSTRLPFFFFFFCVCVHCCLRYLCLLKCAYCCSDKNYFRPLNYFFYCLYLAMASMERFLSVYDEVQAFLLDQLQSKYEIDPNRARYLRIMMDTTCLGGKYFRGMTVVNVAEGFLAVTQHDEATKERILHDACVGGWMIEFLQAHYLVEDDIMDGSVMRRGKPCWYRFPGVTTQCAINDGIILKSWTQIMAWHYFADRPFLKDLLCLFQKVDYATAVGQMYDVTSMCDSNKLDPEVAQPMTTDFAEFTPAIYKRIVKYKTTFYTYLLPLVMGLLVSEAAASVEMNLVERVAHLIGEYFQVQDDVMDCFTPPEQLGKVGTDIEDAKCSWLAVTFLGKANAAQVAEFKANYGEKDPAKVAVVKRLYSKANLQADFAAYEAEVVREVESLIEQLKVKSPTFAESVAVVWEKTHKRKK
The experiment in a line: TcFPPS enzyme inhibition. The class given is biochemical. Conditions: read-out: TcFPPS IC50; means ± SD, n = 3.

Series [4] has as its system T. cruzi squalene synthase (TcSQS). As to conditions: cited from earlier work; for IC50: read-out: TcSQS IC50, enzymatic activity of TcSQS.
Series [5] deals with T. cruzi (amastigotes). As to conditions: read-out: T. cruzi growth EC50; cited from earlier work.
The subject of series [6] is T. gondii (tachyzoites). As to conditions: read-out: T. gondii growth EC50; cited from earlier work.
The mark [7] stands for this setting: Toxoplasma gondii, read-out: T. gondii growth EC50, tachyzoites.
Where [8] appears, read: read-out: T. gondii growth EC50, tachyzoites.

Where two headings read alike, the source gives them in different places. Some results are limits rather than exact numbers.

Broadly, the EC50 is the concentration that produces a half-maximal response. As for `N#CSCCOc1cccc(Oc2ccccc2F)c1` [Compound 20, 3-(2-Fluorophenoxy)phenoxyethyl Thiocyanate], the EC50 in [1] was greater than 60 µM; in the series on T. cruzi (amastigotes) [2], 7.01 ± 0.51 µM; in the series on T. gondii (tachyzoites) [3] (setting [7]), 3.1 µM; in the series with T. gondii (tachyzoites) [3] (setting [8]), 3.12 ± 0.37 µM.

Regarding `N#CSCCOc1cccc(Oc2cccc(F)c2)c1` [Compound 21, 3-(3-Fluorophenoxy)phenoxyethyl Thiocyanate], the EC50 in [1] was greater than 50 µM; in the series on T. cruzi (amastigotes) [2], 5.38 ± 0.82 µM; in the series on T. gondii (tachyzoites) [3] (setting [7]), 1.6 µM; with T. gondii (tachyzoites) [3] (setting [8]), 1.63 ± 0.36 µM.

For `N#CSCCOc1cccc(Oc2ccc(F)cc2)c1` [Compound 22, 3-(4-Fluorophenoxy)phenoxyethyl Thiocyanate], the EC50 in series [1] is greater than 55 µM; in the series on T. cruzi (amastigotes) [2], 5.69 ± 0.47 µM; in the series on T. gondii (tachyzoites) [3] (setting [7]) it was 4.9 µM; with T. gondii (tachyzoites) [3] (setting [8]) it was 4.92 ± 1.94 µM.

With `N#CSCCOc1ccc(Oc2ccccc2F)cc1` [Compound 27, 4-(2-Fluorophenoxy)phenoxyethyl Thiocyanate], the figures for the EC50 (in series [1]; with T. gondii (tachyzoites) [3] (setting [7]); in the series on T. gondii (tachyzoites) [3] (setting [8])) were greater than 55 µM, 4.5 µM and 4.54 ± 0.57 µM, respectively. The “antiparasitic activity against T. cruzi (in words)” value (shortened to “antiparasitic activity”) in the series on T. cruzi (amastigotes) [2] was “devoid of antiparasitic activity”.

Turning to `N#CSCCOc1ccc(Oc2ccncc2)cc1` [Compound 31, 4-(4-pyridyl)oxyphenoxyethyl Thiocyanate], the EC50 is greater than 200 µM in series [1] and 7.9 µM with T. gondii (tachyzoites) [3] (setting [7]). Also, the “antiparasitic activity” value with T. cruzi (amastigotes) [2] is reported as “free of antiparasitic activity”.

As a reminder, the IC50 is the concentration needed to halve the response being measured. In the case of `O=P(O)(O)C(CNCCOc1ccc(Oc2ccccc2)cc1)P(=O)(O)O` [Compound 43, 1-[(4-Phenoxyphenoxyethylamino)ethyl]-1,1-bisphosphonic Acid], the EC50 in the series with Vero cells was greater than 100 µM; with T. cruzi (amastigotes) [2] it was greater than 10 µM; with T. gondii (tachyzoites) [3] (setting [8]), 5.9 ± 0.07 µM. The IC50 was 0.094 ± 0.02 µM at TgFPPS and greater than 10 µM at HhFPPS.

In the case of `O=P(O)(O)C(CSCCOc1ccc(Oc2ccccc2)cc1)P(=O)(O)O` [Compound 48], the IC50 on TcFPPS is 0.8 ± 0.12 µM; on TgFPPS it was 0.362 ± 0.002 µM; at HhFPPS, greater than 15 µM. In addition, the results for the EC50 with Vero cells, with T. cruzi (amastigotes) [2] and with T. gondii (tachyzoites) [3] (setting [8]) were greater than 200 µM, greater than 20 µM and greater than 10 µM, respectively.

With `O=P(O)(O)C(CNCCOc1cccc(Oc2ccccc2)c1)P(=O)(O)O` [Compound 53, 1-[(3-Phenoxyphenoxyethylamino)ethyl]-1,1-bisphosphonic Acid], the IC50 at TcFPPS is greater than 10 µM; on TgFPPS it was 0.04 ± 0.002 µM; on HhFPPS it was greater than 10 µM. Besides, the figures for the EC50 in the series with Vero cells, with T. cruzi (amastigotes) [2] and in the series on T. gondii (tachyzoites) [3] (setting [8]) were greater than 50 µM, greater than 10 µM and 2.4 ± 0.7 µM, respectively. Further, the “antiparasitic activity” value in the series on T. cruzi (amastigotes) [2] is “devoid of activity”.

In the case of `O=P(O)(O)C(CSCCOc1cccc(Oc2ccccc2)c1)P(=O)(O)O` [Compound 58, 2-[3-(Phenoxy)phenoxyethylthio]ethyl-1,1-bisphosphonic Acid], the concentration giving a half-maximal response (EC50) with Vero cells was greater than 100 µM; in the series on T. cruzi (amastigotes) [2], greater than 10 µM; in the series with T. gondii (tachyzoites) [3] (setting [8]) it was 0.67 ± 0.23 µM; with T. gondii (tachyzoites) [3] (read-out: T. gondii growth EC50, tachyzoites, listed as 2-[3-(phenoxy)phenoxyethylthio]ethyl-1,1-bisphosphonate), 0.7 µM. Moreover, the “antiparasitic activity” value in the series on T. cruzi (amastigotes) [2] is given as “devoid of activity”. Moreover, the IC50 on TgFPPS is 0.076 ± 0.019 µM; at HhFPPS, greater than 10 µM.

Turning to `O=P(O)(O)C(CNCCOc1ccccc1)P(=O)(O)O` [Compound 63, 1-[(Phenoxyethylamino)ethyl]-1,1-bisphosphonic Acid], the IC50 is 0.32 ± 0.04 µM at TcFPPS, 0.18 ± 0.015 µM at TgFPPS and greater than 10 µM on HhFPPS. Besides, the EC50 in the series with T. cruzi (amastigotes) [2] and in the series on T. gondii (tachyzoites) [3] (setting [8]) was greater than 10 µM throughout.

Consider `N#CSCCOc1ccc2ccccc2c1` [Compound 68, 2-(Naphthalen-2-yloxy)ethyl Thiocyanate], for which the “antiparasitic activity” value in the series with T. cruzi (amastigotes) [2] was “vanishing inhibitory action”. Further, the EC50 with T. gondii (tachyzoites) [3] (setting [7]) was determined as 3.6 µM.

Consider `N#CSCCOc1cccc2ccccc12` [Compound 73, 2-(Naphthalen-1-yloxy)ethyl Thiocyanate], for which the figures for the EC50 (in [1]; in the series on T. gondii (tachyzoites) [3] (setting [7])) were 7.5 µM and 3.1 µM, respectively. Besides, in the series on T. cruzi (amastigotes) [2], the “antiparasitic activity” value is reported as “vanishing inhibitory action”.

As to `CO[C@@H]1CN(c2ccc(C#C[C@]3(O)CN4CCC3CC4)c(Cc3ccccc3)n2)C[C@@H]1O` [Compound E5700], in series [4], the “type of inhibition of TcSQS” value was “mixed-type” and the IC50 was 0.00084 µM.

With `COCCCOc1ccc(C#C[C@@]2(O)CN3CCC2CC3)c(Cc2ccccc2)n1` [ER-119884], in series [4], the “type of inhibition of TcSQS” value is “non-competitive” and the IC50 was 0.0035 µM.

As for `N#CSCCOc1ccc(Oc2ccccc2)cc1` [WC-9, 4-Phenoxyphenoxyethyl thiocyanate], the “type of inhibition of TcSQS” value in series [4] is “non-competitive”. Moreover, the EC50 in the series with T. cruzi (amastigotes) [5] is 5 ± 1.1 µM; in the series on T. gondii (tachyzoites) [6], 4.8 ± 0.41 µM.

These data come from publication PMC5200956 (ChemMedChem, 2016).
